What was measured:
Assay in all cases: Test D greenhouse paddy-water test in rice
Format in all cases: in vivo
Details in all cases: 21 days, 0-100 scale
[1] = system: Leptochloa fascicularis (Li)
Source text: (§1) Four plastic pots (ca. 16-cm diameter) per rate were partially filled with sterilized Tama silt loam soil comprised of a 35:50:15 ratio of sand, silt and clay and 2.6% organic matter. Separate plantings for each of the four pots were as follows. Seeds from the U.S. of Heteranthera limosa (Hl), Monochoria vaginalis (Mv), Ammania auriculata (Aa), and Sphenoclea zeylanica (Sz) were planted into one 16-cm pot for each rate. Seeds from the U.S. of Cyperus iria (Ci), Leptochloa fascicularis (Li), one stand of 9 or 10 direct-seeded rice seedlings (Oryza saliva cv. ‘Japonica—M202’; Oss), and one stand of 6 transplanted rice seedlings (Oryza sativa cv. ‘Japonica—M202’; Ost) were planted into one 16-cm pot for each rate. Seeds from the U.S. of Cyperus difformis (Cd), Alisma plantago-aquatica (Ap), and Scirpus mucronatus (Sm) were planted into one 16-cm pot for each rate. Seeds from the U.S. of Echinochloa crus-galli (Ecg), Echinochloa oryzicola (Eor), Echinochloa oryzoides (Eoz) and Echinochloa colonum (Ecc) were planted into one 16-cm pot for each rate. Plantings were sequential so that crop and weed species were at the 2.0 to 2.5-leaf stage at time of treatment.
(§2) Potted plants were grown in a greenhouse with day/night temperature settings of 29.5/26.7° C., and supplemental balanced lighting was provided to maintain a 16-hour photoperiod. Test pots were maintained in the greenhouse until test completion.
(§3) Chemical treatments consisting of Compound 1 of Index Table A (Cmpd 1), daimuron (Cmpd D), quinoclamine (Cmpd Q) and combinations thereof were formulated in acetone. At time of treatment, test pots were flooded to 3 cm above the soil surface, treated by application of test compounds directly to the paddy water, and then maintained at that water depth for the duration of the test. Effects of treatments on rice and weeds were visually evaluated by comparison to untreated controls after 21 days. Plant response ratings are reported on a 0 to 100 scale; where 0 is no effect and 100 is complete control. ND means no data.
(§4) Colby's equation was used to calculate the expected additive herbicidal effect of the mixtures of Compound 1 with daimuron (Cmpd D) and quinoclamine (Cmpd Q). Colby's equation (Colby, S. R “Calculating Synergistic and Antagonistic Responses of Herbicide Combinations,” Weeds, 15(1), pp 20–22 (1967)) calculates the expected additive effect of herbicidal mixtures, and for two active ingredients is of the form: Pa+b=Pa+Pb−(PaPb/100) wherein Pa+b is the percentage effect of the mixture expected from additive contribution of the individual components, • Pa is the observed percentage effect of the first active ingredient at the same use rate as in the mixture, and • Pb is the observed percentage effect of the second active ingredient at the same use rate as in the mixture.

[2] = system: Sphenoclea zeylanica (Sz)
Source text: as §1, §2, §3, §4

[3] = system: Echinochloa oryzoides (Eoz)
Source text: as §1, §2, §3, §4

[4] = system: direct-seeded rice seedlings (Oryza saliva cv. 'Japonica—M202'; Oss)
Source text: as §1, §2, §3, §4

[5] = system: transplanted rice seedlings (Oryza sativa cv. 'Japonica—M202'; Ost)
Source text: as §1, §2, §3, §4

[6] = system: Echinochloa crus-galli (Ecg)
Source text: as §1, §2, §3, §4

CC(C)(C)c1ccn(C2SCN(c3cccc(C(F)(F)F)c3)C2=O)n1 (stereo not drawn) [Compound 1]
Obs. (observed effect) Lf ([1]; 32 g/ha alone): 90 | Obs. (observed effect) Lf ([1]; 64 g/ha alone): 100 | Obs. (observed effect) Lf ([1]; 125 g/ha alone): 100 | Obs. (observed effect) Lf ([1]; 250 g/ha alone): 100 | Obs. (observed effect) Lf ([1]; 500 g/ha alone): 100 | Obs. (observed effect) Sz ([2]; 32 g/ha alone): 100 | Obs. (observed effect) Sz ([2]; 64 g/ha alone): 100 | Obs. (observed effect) Sz ([2]; 125 g/ha alone): 100 | Obs. (observed effect) Sz ([2]; 250 g/ha alone): 100 | Obs. (observed effect) Sz ([2]; 500 g/ha alone): 100 | Obs. (observed effect) Eoz ([3]; 32 g/ha alone): 20 | Obs. (observed effect) Eoz ([3]; 64 g/ha alone): 100 | Obs. (observed effect) Eoz ([3]; 125 g/ha alone): 100 | Obs. (observed effect) Eoz ([3]; 250 g/ha alone): 100 | Obs. (observed effect) Eoz ([3]; 500 g/ha alone): 100 | Obs. (observed effect) Oss ([4]; 32 g/ha alone): 40 | Obs. (observed effect) Oss ([4]; 64 g/ha alone): 40 | Obs. (observed effect) Oss ([4]; 125 g/ha alone): 70 | Obs. (observed effect) Oss ([4]; 250 g/ha alone): 100 | Obs. (observed effect) Oss ([4]; 500 g/ha alone): 100 | Obs. (observed effect) Ost ([5]; 32 g/ha alone): 15 | Obs. (observed effect) Ost ([5]; 64 g/ha alone): 0 | Obs. (observed effect) Ost ([5]; 125 g/ha alone): 0 | Obs. (observed effect) Ost ([5]; 250 g/ha alone): 20 | Obs. (observed effect) Ost ([5]; 500 g/ha alone): 60 | Obs. (observed effect) Ecg ([6]; 32 g/ha alone): 0 | Obs. (observed effect) Ecg ([6]; 64 g/ha alone): 85 | Obs. (observed effect) Ecg ([6]; 125 g/ha alone): 100 | Obs. (observed effect) Ecg ([6]; 250 g/ha alone): 100 | Obs. (observed effect) Ecg ([6]; 500 g/ha alone): 100
